Earlier results as cited in patent US20070116643A1, “Novel aryloxypropanamines” (Concert Pharmaceuticals Inc., priority 2005, published 2007).
Structures can show the parent of a compound that is named as a salt.

How the values were obtained:
[1] = test system: NE reuptake; conditions: in humans
[2] = test system: central monoamine receptors
[3] = test system: 5-HT reuptake; conditions: rodent models
[4] = test system: 5-HT reuptake; conditions: in humans

In the case of CNCC[C@H](Oc1cccc2ccccc12)c1cccs1 [Compound A, (S)-N-methyl-3-(naphthalen-1-yloxy)-3-(thiophen-2-yl)propan-1-amine hydrochloride], the “inhibition of NE reuptake” value [1] is listed as “recapitulates the preclinically observed inhibition of 5-HT and NE reuptake”, the “affinity for central monoamine receptors” value [2] is listed as “lacks affinity for central monoamine receptors” and the “inhibition of neural cell firing / 5-HT reuptake” value [3] is listed as “inhibiting neural cell firing by reducing reuptake of 5-HT”. The “circulating radioactivity attributable to parent drug, AUC basis” value (humans, radiolabeled Compound A) was “approximately 3%”, the extent of metabolism (oral administration to humans, predominantly oxidative mechanisms) was “rapidly and extensively metabolized” and the “inhibition of 5-HT reuptake” value [4] was “recapitulates the preclinically observed inhibition of 5-HT and NE reuptake”.
